Here are results for 22 compounds from PubChem BioAssay (NCI).

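Step 1: Grow cells in 96-well plates. Step 2: Expose to compound for 48 hours at 5 concentrations. Step 3: Interpolate endpoints linearly; if unreached, use highest concentration. GI50 marks 50% less growth. At the TGI there is no net growth.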 Where only a bound is given, the exact number is not on record here.

The first test has as its system HCC-2998 colon. Put plainly: inhibition of tumour cell growth, NCI panel, 48 h.
Turning to `COc1ccc(C(O)c2nccn2C)c(OC)c1` (configuration not stated), the TGI is greater than 100 µM.

Take `CS(=O)(=O)CCCn1c(=O)c(Oc2ccc(F)cc2F)cc2cnc(NC3CCOCC3)nc21`: the GI50 was greater than 25 µM and the TGI is greater than 25 µM.

The compound `CCc1c(OC(C)=O)c2c(NC3OC(COC(C)=O)C(OC(C)=O)C(OC(C)=O)C3OC(C)=O)nc(OC)nc2oc1=O` (configuration not stated) registered a TGI greater than 100 µM.

Take `O=[N+]([O-])c1ccc(-n2nnc(C3=NCCN3)c2-c2ccc(Cl)cc2)cc1`: the TGI is greater than 100 µM.

Compound `CCOc1ccc(N2C(=O)/C(=C/c3ccc(N(CCC#N)CCC#N)cc3)N=C2c2cc([N+](=O)[O-])ccc2Cl)cc1` gave a TGI greater than 100 µM.

Regarding `COc1ccc(-c2cc(-c3ccccc3)c(C#N)c(=O)n2C2OC(CO)C(O)C(O)C2O)cc1` (configuration not stated), the TGI was greater than 100 µM.

For `CCOC(=O)C1(c2ccccc2)CCC(=O)CC1`, the TGI is greater than 100 µM.

On to `CCCCCCNC(=O)c1nc(-c2ccccc2)oc1Cc1ccc(OP(=O)(O)O)cc1`, for which the GI50 is 18.2 µM and the TGI was 33.4 µM.

`O=C(O)CSc1n[nH]c(-c2ccccc2)n1` showed a TGI greater than 100 µM.

In the case of `CCCCCCC[CH2][Sn]1([CH2]CCCCCCC)[O]C(=O)c2cccnc2[S]1`, the GI50 is greater than 100 µM and the TGI is greater than 100 µM.

Regarding `COc1ccc(/C(=N\NC(=O)C(N)=O)C(c2ccc(OC)cc2)C2(O)C(=O)Nc3c(Cl)cccc32)cc1` (configuration not stated), the TGI was greater than 100 µM.

`Cc1ccc(S(=O)(=O)N/N=C/c2oc(-c3ccncc3)c(-c3ccncc3)c2[N+](=O)[O-])cc1` came in with a TGI greater than 100 µM.

In the case of `CCc1cccc(C)c1NC(=O)C(=O)Cc1nc2ccccc2o1`, the TGI was greater than 100 µM.

On to `O=C1c2ccccc2C2(O)c3cc4ccccc4cc3OC12O` (configuration not stated), for which the TGI is greater than 100 µM.

With `CN(C)c1c([O-])c(=[N+](C)C)c1=O`, the TGI was greater than 100 µM.

A further test has as its system SK-OV-3 ovarian. Put plainly: inhibition of tumour cell growth, NCI panel, 48 h.
As for `O=c1n(-c2ccccc2)c(=O)n2n1C1C=CC2C2C(C1)C2(Cl)Cl` (configuration not stated), the TGI is greater than 100 µM.

On to `O=c1[nH]c(=O)n(C2CC(O)C(CO)O2)cc1CO` (configuration not stated), for which the GI50 was greater than 100 µM and the TGI is greater than 100 µM.

As to `Cc1c(Cl)cccc1N1C(=O)C(Cl)=C(Cl)C1=O`, the TGI was greater than 100 µM.

As for `COc1cccc(/C=N/[N-]C(=O)c2ccncc2)c1[O-].[Cu+2].[OH3+]`, the GI50 was 15.1 µM and the TGI is 82 µM.

`COc1ccc(C(O)c2nccn2C)c(OC)c1` (configuration not stated) gave a TGI greater than 100 µM.

As for `CS(=O)(=O)CCCn1c(=O)c(Oc2ccc(F)cc2F)cc2cnc(NC3CCOCC3)nc21`, the GI50 was greater than 25 µM and the TGI is greater than 25 µM.

`CCc1c(OC(C)=O)c2c(NC3OC(COC(C)=O)C(OC(C)=O)C(OC(C)=O)C3OC(C)=O)nc(OC)nc2oc1=O` (configuration not stated) gave a TGI greater than 100 µM.

Regarding `Cc1cn2c(/C=C3\C(=O)Nc4ccc(O)cc43)c(-c3ccc(Cl)cc3)nc2s1`, the GI50 was 25.9 µM and the TGI amounted to 62.7 µM.

Compound `O=[N+]([O-])c1ccc(-n2nnc(C3=NCCN3)c2-c2ccc(Cl)cc2)cc1` returned a TGI greater than 100 µM.

`CCOc1ccc(N2C(=O)/C(=C/c3ccc(N(CCC#N)CCC#N)cc3)N=C2c2cc([N+](=O)[O-])ccc2Cl)cc1` yielded a TGI greater than 100 µM.

Compound `COc1ccc(-c2cc(-c3ccccc3)c(C#N)c(=O)n2C2OC(CO)C(O)C(O)C2O)cc1` (configuration not stated) came in with a TGI greater than 100 µM.

`CCOC(=O)C1(c2ccccc2)CCC(=O)CC1` displayed a TGI greater than 100 µM.

As to `CCCCCCNC(=O)c1nc(-c2ccccc2)oc1Cc1ccc(OP(=O)(O)O)cc1`, the GI50 is 20 µM and the TGI is 47.6 µM.

On to `CCCn1c(N)c(C(=O)N/N=C(/C)c2cc3cccc(OC)c3o2)sc1=S`, for which the GI50 was 65.4 µM and the TGI was greater than 100 µM.

`O=C(O)CSc1n[nH]c(-c2ccccc2)n1` showed a TGI greater than 100 µM.

Regarding `O=c1cc2oc3cc(O)c(O)cc3c(-c3ccccc3O)c-2cc1O`, the GI50 was 7.65 µM and the TGI was greater than 100 µM.

Regarding `CCCCCCC[CH2][Sn]1([CH2]CCCCCCC)[O]C(=O)c2cccnc2[S]1`, the GI50 was greater than 100 µM and the TGI is greater than 100 µM.

`Cc1ccc(S(=O)(=O)N/N=C/c2oc(-c3ccncc3)c(-c3ccncc3)c2[N+](=O)[O-])cc1` yielded a TGI greater than 100 µM.

Take `CCc1cccc(C)c1NC(=O)C(=O)Cc1nc2ccccc2o1`: the TGI is greater than 100 µM.

The compound `O=C1c2ccccc2C2(O)c3cc4ccccc4cc3OC12O` (configuration not stated) gave a TGI greater than 100 µM.

Take `CN(C)c1c([O-])c(=[N+](C)C)c1=O`: the TGI was greater than 100 µM.

A further test deals with OVCAR-5 ovarian. In words: inhibition of tumour cell growth, NCI panel, 48 h.
With `O=c1n(-c2ccccc2)c(=O)n2n1C1C=CC2C2C(C1)C2(Cl)Cl` (configuration not stated), the TGI was greater than 100 µM.

With `O=c1[nH]c(=O)n(C2CC(O)C(CO)O2)cc1CO` (configuration not stated), the GI50 was greater than 100 µM and the TGI was greater than 100 µM.

For the compound `Cc1c(Cl)cccc1N1C(=O)C(Cl)=C(Cl)C1=O`, the TGI is greater than 100 µM.

As for `COc1cccc(/C=N/[N-]C(=O)c2ccncc2)c1[O-].[Cu+2].[OH3+]`, the GI50 is greater than 100 µM and the TGI was greater than 100 µM.

Regarding `COc1ccc(C(O)c2nccn2C)c(OC)c1` (configuration not stated), the TGI was greater than 100 µM.

For `CS(=O)(=O)CCCn1c(=O)c(Oc2ccc(F)cc2F)cc2cnc(NC3CCOCC3)nc21`, the GI50 is greater than 25 µM and the TGI is greater than 25 µM.

Take `CCc1c(OC(C)=O)c2c(NC3OC(COC(C)=O)C(OC(C)=O)C(OC(C)=O)C3OC(C)=O)nc(OC)nc2oc1=O` (configuration not stated): the TGI was greater than 100 µM.

Regarding `Cc1cn2c(/C=C3\C(=O)Nc4ccc(O)cc43)c(-c3ccc(Cl)cc3)nc2s1`, the GI50 is 21.2 µM and the TGI came out at 51.4 µM.

`O=[N+]([O-])c1ccc(-n2nnc(C3=NCCN3)c2-c2ccc(Cl)cc2)cc1` registered a TGI greater than 100 µM.

The compound `CCOc1ccc(N2C(=O)/C(=C/c3ccc(N(CCC#N)CCC#N)cc3)N=C2c2cc([N+](=O)[O-])ccc2Cl)cc1` gave a TGI greater than 100 µM.

The compound `COc1ccc(-c2cc(-c3ccccc3)c(C#N)c(=O)n2C2OC(CO)C(O)C(O)C2O)cc1` (configuration not stated) showed a TGI greater than 100 µM.

Regarding `CCOC(=O)C1(c2ccccc2)CCC(=O)CC1`, the TGI was greater than 100 µM.

On to `CCCCCCNC(=O)c1nc(-c2ccccc2)oc1Cc1ccc(OP(=O)(O)O)cc1`, for which the GI50 was 14.6 µM and the TGI amounted to 28.5 µM.

As for `CCCn1c(N)c(C(=O)N/N=C(/C)c2cc3cccc(OC)c3o2)sc1=S`, the GI50 is greater than 100 µM and the TGI was greater than 100 µM.
